Where “and” joins values, the source holds several entries; their conditions need not be identical. Equal entries are not always repeated.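 Grown in 96-well plates, cells were treated for 48 hours with each compound at five concentrations. Insufficient inhibition: endpoint recorded as highest concentration tested. GI50 = concentration required for 50% inhibition of growth. TGI is the concentration that stops growth completely.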
Experiments:
Assay in all cases: NCI-60 cell line screen, 48 h
OVCAR-3 ovarian = system: OVCAR-3 ovarian
CAKI-1 renal = system: CAKI-1 renal
MDA-MB-231 breast = system: MDA-MB-231 breast
NCI/ADR-RES ovarian = system: NCI/ADR-RES ovarian
SF-539 CNS = system: SF-539 CNS
SR leukemia = system: SR leukemia
IGROV1 ovarian = system: IGROV1 ovarian
NCI-H23 lung = system: NCI-H23 lung
ACHN renal = system: ACHN renal
HCC-2998 colon = system: HCC-2998 colon

Structure (SMILES)	TGI (OVCAR-3 ovarian)	TGI (CAKI-1 renal)	TGI (MDA-MB-231 breast)	TGI (NCI/ADR-RES ovarian)	TGI (SF-539 CNS)	TGI (SR leukemia)	TGI (IGROV1 ovarian)	TGI (NCI-H23 lung)	TGI (ACHN renal)	GI50 (HCC-2998 colon)	TGI (HCC-2998 colon)	GI50 (OVCAR-3 ovarian)	GI50 (CAKI-1 renal)	GI50 (MDA-MB-231 breast)	GI50 (NCI/ADR-RES ovarian)	GI50 (SF-539 CNS)	GI50 (SR leukemia)	GI50 (IGROV1 ovarian)	GI50 (NCI-H23 lung)	GI50 (ACHN renal)
C[C@]12CCC3=NCCN3C1=CC[C@@H]1[C@@H]2CC[C@@]2(C)[C@H]1CC[C@]2(C)O	> 100 µM	> 100 µM	> 100 µM	> 100 µM	80 µM	> 100 µM	> 100 µM	> 100 µM	> 100 µM	–	–	–	–	–	–	–	–	–	–	–
C#Cc1cccc(NC(=O)C2CCCN(C(=O)CCl)C2)c1 (stereo unspecified)	> 82.5 µM	> 82.5 µM	> 82.5 µM	> 82.5 µM	> 82.5 µM	> 82.5 µM	33.3 µM	> 82.5 µM	31.6 µM	> 82.5 µM	> 82.5 µM	> 82.5 µM	> 82.5 µM	> 82.5 µM	> 82.5 µM	> 82.5 µM	24.2 µM	14.3 µM	21.8 µM	16.1 µM
O=C(OC[C@@H]1CO1)c1cccc2c(=O)c3ccccc3[nH]c12	1.14 µM	0.687 µM	2.29 µM	2.08 µM	1.97 µM	–	1.83 µM	1.25 µM	0.305 µM	0.312 µM	1.25 µM	0.276 µM	0.2 µM	0.393 µM	0.253 µM	0.344 µM	0.0604 µM	0.329 µM	0.288 µM	0.107 µM
OCCCCC#Cc1ccccc1C#Cc1ccc(C(F)(F)F)cc1	32.6 µM	33.8 µM	34 µM	30.7 µM	37.2 µM	31.8 µM	32 µM	32.4 µM	31.2 µM	17.1 µM	32 µM	17.8 µM	18.6 µM	18.6 µM	15 µM	19.7 µM	0.693 µM	17.6 µM	16.8 µM	17.5 µM
CN(C)c1ccc(C2CC(C)(O)Oc3cc4c(cc32)OCO4)cc1 (stereo unspecified)	> 100 µM	> 100 µM	> 100 µM	> 100 µM	> 100 µM	> 100 µM	> 100 µM	> 100 µM	> 100 µM	–	95.1 µM	–	–	–	–	–	–	–	–	–
COc1cc2cc3c(c(O)c2c(O)c1-c1c(OC)cc2cc4c(c(O)c2c1O)C(=O)O[C@H](C)C4)C(=O)O[C@H](C)C3	48.4 µM	61.2 µM	42 µM	> 100 µM	–	> 100 µM	–	> 100 µM	66.7 µM	33 µM	> 100 µM	21.2 µM	23.9 µM	16.2 µM	37.2 µM	–	70.6 µM	–	32.1 µM	24.7 µM
C=C(Cl)[C@@](Cl)(CBr)CC[C@@H](Br)C(C)(C)Cl	2.87 µM and 1.35 µM	4.9 µM and 1.06 µM	–	–	0.325 µM	> 100 µM and 79.4 µM	32.2 µM and 32.6 µM	30.2 µM and 29.1 µM	0.562 µM and 0.47 µM	1.27 µM	3.12 µM and 1.65 µM	–	1.22 µM	0.577 µM	3.05 µM	0.0282 µM	23.1 µM	14.7 µM	13.4 µM	0.184 µM
